Results from US12091402B2 (Avilar Therapeutics, Inc., priority 2021, dated 2024).
Like-named read-outs stand apart in the source and are kept apart here. Where a SMILES comes first, the peptide text is derived from it. Bridges are numbered along the chain shown (N, C = ends). [ ]: non-standard residue; d: D form. Pro(4S-NH2) = N[C@@H]1CN[C@H](C(=O)O)C1

Columns and labels:
IgG = assay: Affinity to IgG by surface plasmon resonance (SPR); assay type: binding
Protocol: Immobilization levels ranging from 1000-1300 resonance units (RU) are obtained. The running buffer is 10 mM HEPES, pH 7.4, 400 mM NaCl, 0.005% P20, […].

HepG2 cells = assay: Cellular uptake assay of AF488-labeled antibody (HepG2); assay type: cell-based
Protocol: The cellular uptake assay is designed to measure compound-mediated cellular uptake of fluorescently labeled antibody following ternary complex formation with the ASGPR receptor and endocytosis of the entire complex into cells.
Human IgG (Sigma-Aldrich, 14506) was covalently labeled with Alexa Fluor 488 using the Alexa Fluor™ 488 Protein Labeling Kit (Thermo Fisher, A10235) following the manufacturer's instructions. HepG2 cells were plated in DMEM supplemented with 10% FBS at 5,000 cells per well in a 96-well microtiter plate and incubated for approximately 18 hours at 37° C./5% CO2. For studies using human IgG, 100 nM AF488-labeled human IgG antibodies and serial dilutions of IgG-based degrader (0.1% DMSO final concentration) were added to the cells and the mixture was incubated at 37° C. for 6 hours. For studies using DNP, 100 nM AF488-labeled DNP antibodies and serial dilutions of DNP-based degrader (0.1% DMSO final concentration) were added to the cells and the mixture was incubated at 37° C. for 6 hours. HepG2 cells were fixed in 100% methanol at −20° C. for 20 min, washed 3× with PBS, then stained with DAPI (Thermo, Cat #H3570). HepG2 cells were imaged for DAPI and Alexa Fluor 488 using the Operetta CLS, high-content analysis system (PerkinElmer). Data is presented as the ratio of the number of cells positive for hIgG or DNP (AF-488 fluorescence) over the total cell number (measured by DAPI).

ASGPR = molecular target: T1, ASGPR (Homo sapiens, UniProt P07306); assay: Affinity to ASGPR by surface plasmon resonance (SPR)
T1 sequence (P07306 1-291): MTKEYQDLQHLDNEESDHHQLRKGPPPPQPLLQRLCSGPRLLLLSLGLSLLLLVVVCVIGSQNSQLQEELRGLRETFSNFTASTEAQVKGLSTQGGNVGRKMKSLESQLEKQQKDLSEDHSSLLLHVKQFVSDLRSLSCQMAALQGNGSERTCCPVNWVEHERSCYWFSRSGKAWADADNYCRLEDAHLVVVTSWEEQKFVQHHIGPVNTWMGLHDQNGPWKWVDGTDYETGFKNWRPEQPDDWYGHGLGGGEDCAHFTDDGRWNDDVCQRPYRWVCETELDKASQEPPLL

[1] = Biacore 8K, 25° C., IgG on CM5 chip, read-out: IgG SPR Binding Kd
[2] = HepG2 cells, 100 nM AF488-labeled antibody, 37° C. for 6 hours, class symbols, read-out: Uptake Assay EC50

| SMILES | Kd (IgG; [1]) | EC50 (HepG2 cells; [2]) | Kd (IgG; SPR, read-out: IgG KD) | also measured |
| --- | --- | --- | --- | --- |
| CC(C)C[C@@H]1NC(=O)[C@H](Cc2c[nH]cn2)NC(=O)[C@H](Cc2c[nH]c3ccccc23)NC(=O)[C@H](C)NC(=O)[C@@H]2CSSC[C@H](NC(=O)[C@H](Cc3c[nH]c4ccccc34)NC(=O)[C@H](C(C)C)NC(=O)[C@H](CC(C)C)NC(=O)[C@H](CCC(=O)O)NC(=O)CNC1=O)C(=O)N[C@@H]([C@@H](C)O)C(=O)N1CCC[C@@H]1C(=O)N1C[C@@H](NC(=O)CCOCCOCCOCCOCCNC(=O)CCCc3cn(C[C@@]45CO[C@@H](O4)[C@H](Nc4nc(Cl)ns4)[C@@H](O)[C@H]5O)nn3)C[C@H]1C(=O)N[C@@H](CC(=O)O)C(=O)N2 [Compound 15] | < 100 nM | 100 to 500 nM |  |  |
| CC(C)C[C@@H]1NC(=O)[C@H](Cc2cnc[nH]2)NC(=O)[C@H](Cc2c[nH]c3ccccc23)NC(=O)[C@H](C)NC(=O)[C@@H]2CSSC[C@H](NC(=O)[C@H](Cc3c[nH]c4ccccc34)NC(=O)[C@H](C(C)C)NC(=O)[C@H](CC(C)C)NC(=O)[C@H](CCC(=O)O)NC(=O)CNC1=O)C(=O)N[C@@H]([C@@H](C)O)C(=O)N1CCC[C@@H]1C(=O)N1C[C@@H](NC(=O)CCCc3cn(C[C@H]4OC[C@H](Nc5nccc(C(F)(F)F)n5)[C@@H](O)[C@H]4O)nn3)C[C@H]1C(=O)N[C@@H](CC(=O)O)C(=O)N2 [Compound 80] |  |  | < 100 nM | Kd (ASGPR): > 1000 nM |
| CC(C)C[C@@H]1NC(=O)[C@H](Cc2c[nH]cn2)NC(=O)[C@H](Cc2c[nH]c3ccccc23)NC(=O)[C@H](C)NC(=O)[C@@H]2CSSC[C@H](NC(=O)[C@H](Cc3c[nH]c4ccccc34)NC(=O)[C@H](C(C)C)NC(=O)[C@H](CC(C)C)NC(=O)[C@H](CCC(=O)O)NC(=O)CNC1=O)C(=O)N[C@@H]([C@@H](C)O)C(=O)N1CCC[C@@H]1C(=O)N1C[C@@H](NC(=O)CCOCCOCCOCCOCCNC(=O)CCCc3cn(CCCCCC(=O)NC(COCCC(=O)NCCOCCOCCOCCOC[C@@]45CO[C@@H](O4)[C@H](Nc4nc(Cl)ns4)[C@@H](O)[C@H]5O)COCCC(=O)NCCOCCOCCOCCOC[C@@]45CO[C@@H](O4)[C@H](Nc4nc(Cl)ns4)[C@@H](O)[C@H]5O)nn3)C[C@H]1C(=O)N[C@@H](CC(=O)O)C(=O)N2 [Compound 14] |  | < 100 nM |  |  |
| CC(C)C[C@@H]1NC(=O)[C@H](Cc2c[nH]cn2)NC(=O)[C@H](Cc2c[nH]c3ccccc23)NC(=O)[C@H](C)NC(=O)[C@@H]2CSSC[C@H](NC(=O)[C@H](Cc3c[nH]c4ccccc34)NC(=O)[C@H](C(C)C)NC(=O)[C@H](CC(C)C)NC(=O)[C@H](CCC(=O)O)NC(=O)CNC1=O)C(=O)N[C@@H]([C@@H](C)O)C(=O)N1CCC[C@@H]1C(=O)N1C[C@@H](NC(=O)CCOCCOCCNC(=O)CCCc3cn(CCCCCC(=O)NC(COCCC(=O)NCCOCCOCCOCCOC[C@@]45CO[C@@H](O4)[C@H](Nc4nc(Cl)ns4)[C@@H](O)[C@H]5O)COCCC(=O)NCCOCCOCCOCCOC[C@@]45CO[C@@H](O4)[C@H](Nc4nc(Cl)ns4)[C@@H](O)[C@H]5O)nn3)C[C@H]1C(=O)N[C@@H](CC(=O)O)C(=O)N2 [Compound 17] | < 100 nM | < 100 nM |  |  |
| CC(C)C[C@@H]1NC(=O)[C@H](Cc2c[nH]cn2)NC(=O)[C@H](Cc2c[nH]c3ccccc23)NC(=O)[C@H](C)NC(=O)[C@@H](NC(=O)[C@H](CC(=O)O)NC(=O)CCOCCOCCOCCOCCNC(=O)CCCc2cn(CCCCCC(=O)NC(COCCC(=O)NCCOCCOCCOCCOC[C@H]3OC[C@H](Nc4nccc(C(F)(F)F)n4)[C@@H](O)[C@H]3O)COCCC(=O)NCCOCCOCCOCCOC[C@H]3OC[C@H](Nc4nccc(C(F)(F)F)n4)[C@@H](O)[C@H]3O)nn2)CSSC[C@@H](C(=O)N[C@H](C(N)=O)[C@@H](C)O)NC(=O)[C@H](Cc2c[nH]c3ccccc23)NC(=O)[C@H](C(C)C)NC(=O)[C@H](CC(C)C)NC(=O)[C@H](CCC(=O)O)NC(=O)CNC1=O [Compound 22] |  |  |  | Kd (IgG; read-out: IgG KD): < 100 nM; Kd (IgG; read-out: IgG SPR Binding Kd): < 100 nM; EC50 (HepG2 cells; read-out: Uptake Assay EC50): < 100 nM; EC50 (HepG2 cells; read-out: Uptake EC50): < 100 nM |
| CC(C)C[C@@H]1NC(=O)[C@H](Cc2cnc[nH]2)NC(=O)[C@H](Cc2c[nH]c3ccccc23)NC(=O)[C@H](C)NC(=O)[C@@H]2CSSC[C@H](NC(=O)[C@H](Cc3c[nH]c4ccccc34)NC(=O)[C@H](C(C)C)NC(=O)[C@H](CC(C)C)NC(=O)[C@H](CCC(=O)O)NC(=O)CNC1=O)C(=O)N[C@@H]([C@@H](C)O)C(=O)N1CCC[C@@H]1C(=O)N1C[C@H](NC(=O)CNC(COCCC(=O)NCCOCCOCCOCCOC[C@H]3OC[C@H](Nc4cncc(C(F)(F)F)n4)[C@@H](O)[C@H]3O)COCCC(=O)NCCOCCOCCOCCOC[C@H]3OC[C@H](Nc4cncc(C(F)(F)F)n4)[C@@H](O)[C@H]3O)C[C@H]1C(=O)N[C@@H](CC(=O)O)C(=O)N2 [Compound 92] |  |  | < 100 nM | EC50 (HepG2 cells; HepG2 cells, read-out: Uptake EC50): < 100 nM |
| CC(C)C[C@@H]1NC(=O)[C@H](Cc2cnc[nH]2)NC(=O)[C@H](Cc2c[nH]c3ccccc23)NC(=O)[C@H](C)NC(=O)[C@@H]2CSSC[C@H](NC(=O)[C@H](Cc3c[nH]c4cc(Cl)ccc34)NC(=O)[C@H](C(C)C)NC(=O)[C@H](CC(C)C)NC(=O)[C@H](CCC(=O)O)NC(=O)CNC1=O)C(=O)N[C@@H]([C@@H](C)O)C(=O)N1CCC[C@@H]1C(=O)N1C[C@@H](N)C[C@H]1C(=O)N[C@@H](CC(=O)O)C(=O)N2 [Intermediate 19] | < 100 nM |  | < 100 nM |  |
| CC(C)C[C@@H]1NC(=O)[C@H](C)NC(=O)CNC(=O)[C@H](CC(C)C)NC(=O)[C@H](Cc2cnc[nH]2)NC(=O)[C@H](Cc2c[nH]c3ccccc23)NC(=O)[C@H](C)NC(=O)[C@@H]2CSSC[C@H](NC(=O)[C@H](Cc3c[nH]c4ccccc34)NC(=O)[C@H](C(C)C)NC1=O)C(=O)N[C@@H]([C@@H](C)O)C(=O)N1CCC[C@@H]1C(=O)N1C[C@@H](N)C[C@H]1C(=O)N[C@@H](CC(=O)O)C(=O)N2 [Intermediate 17] (cyclo(ALVWCT[dP][Pro(4S-NH2)]DCAWHLG); disulfide 5-10) | < 100 nM |  | < 100 nM |  |
| CC(C)C[C@@H]1NC(=O)[C@H](Cc2c[nH]cn2)NC(=O)[C@H](Cc2c[nH]c3ccccc23)NC(=O)[C@H](C)NC(=O)[C@@H]2CSSC[C@H](NC(=O)[C@H](Cc3c[nH]c4ccccc34)NC(=O)[C@H](C(C)C)NC(=O)[C@H](CC(C)C)NC(=O)[C@H](CCC(=O)O)NC(=O)CNC1=O)C(=O)N[C@@H]([C@@H](C)O)C(=O)N1CCC[C@@H]1C(=O)N1C[C@@H](NC(=O)CCOCCOCCNC(=O)CCCc3cn(C[C@@]45CO[C@@H](O4)[C@H](Nc4nc(Cl)ns4)[C@@H](O)[C@H]5O)nn3)C[C@H]1C(=O)N[C@@H](CC(=O)O)C(=O)N2 [Compound 13] |  | 100 to 500 nM |  |  |
| CC(C)C[C@@H]1NC(=O)[C@H](Cc2c[nH]cn2)NC(=O)[C@H](Cc2c[nH]c3ccccc23)NC(=O)[C@H](C)NC(=O)[C@@H]2CSSC[C@H](NC(=O)[C@H](Cc3c[nH]c4ccccc34)NC(=O)[C@H](C(C)C)NC(=O)[C@H](CC(C)C)NC(=O)[C@H](CCC(=O)O)NC(=O)CNC1=O)C(=O)N[C@@H]([C@@H](C)O)C(=O)N1CCC[C@@H]1C(=O)N1C[C@@H](NC(=O)CCOCCOCCNC(=O)CCCc3cn(CCCCCC(=O)NC(COCCC(=O)NCCOCCOCCOCCOC[C@H]4OC[C@H](Nc5nccc(C(F)(F)F)n5)[C@@H](O)[C@H]4O)COCCC(=O)NCCOCCOCCOCCOC[C@H]4OC[C@H](Nc5nccc(C(F)(F)F)n5)[C@@H](O)[C@H]4O)nn3)C[C@H]1C(=O)N[C@@H](CC(=O)O)C(=O)N2 [Compound 12] |  | < 100 nM |  |  |
| CC(C)C[C@@H]1NC(=O)[C@H](Cc2cnc[nH]2)NC(=O)[C@H](Cc2c[nH]c3ccccc23)NC(=O)[C@H](C)NC(=O)[C@@H]2CSSC[C@H](NC(=O)[C@H](Cc3c[nH]c4ccccc34)NC(=O)[C@H](C(C)C)NC(=O)[C@H](CC(C)C)NC(=O)[C@H](CCC(=O)O)NC(=O)CNC1=O)C(=O)N[C@@H]([C@@H](C)O)C(=O)N1CCC[C@@H]1C(=O)N1C[C@@H](N)C[C@H]1C(=O)N[C@@H](CC(N)=O)C(=O)N2 [Intermediate 13] (cyclo(AWHLGELVWCT[dP][Pro(4S-NH2)]NC); disulfide 10-15) | < 100 nM |  | < 100 nM |  |
| C#CCCCC(=O)NCCOCCOCCOCCC(=O)N[C@H]1C[C@H]2C(=O)N[C@@H](CC(=O)O)C(=O)N[C@H]3CSSC[C@H](NC(=O)[C@H](Cc4c[nH]c5ccccc45)NC(=O)[C@H](C(C)C)NC(=O)[C@H](CC(C)C)NC(=O)[C@H](CCC(=O)O)NC(=O)CNC(=O)[C@H](CC(C)C)NC(=O)[C@H](Cc4cnc[nH]4)NC(=O)[C@H](Cc4c[nH]c5ccccc45)NC(=O)[C@H](C)NC3=O)C(=O)N[C@@H]([C@@H](C)O)C(=O)N3CCC[C@@H]3C(=O)N2C1 [Intermediate 9] | < 100 nM |  |  |  |
